Source: article PMC5062470, “The mGluR2 positive allosteric modulator, SAR218645, improves memory and attention deficits in translational models of cognitive symptoms associated with schizophrenia” (Scientific Reports, 2016)

Columns and labels:
OF1 mice = test: Pentylenetetrazol (PTZ) seizure threshold test; format: in vivo; conditions: dose-range 10–30, po
Procedure: The seizure threshold was determined by the infusion of 8 mg/mL of PTZ at a rate of 0.7 mL/min via a flexible plastic catheter into the tail vein of freely moving OF1 mice (22–24 g) using an infusion pump. The convulsant dose for each endpoint was calculated in mg/kg PTZ. SAR218645 (10 and 30 mg/kg, po) and diazepam (3 mg/kg, ip) were administered 60 or 30 min prior to the beginning of PTZ infusion, respectively. One-way ANOVA was used to assess overall effect of treatment, and Dunnett’s post-hoc was used to compare differences between treatment groups. Ten to fifteen animals per group were used.

Sprague-Dawley rats = test: Amphetamine-induced disruption of auditory evoked potentials (AEP); format: in vivo
Excerpt: All recordings were made using Spike2 software (Cambridge Electronic Design, Cambridge, UK) running on a Windows PC connected to a 1401 interface (Cambridge Electronic Design, Cambridge, UK). EEG recordings were created by connecting the skull plug to an amplifying head stage (AI 1401, Axon Instruments, Union City, CA, USA), via a 6-channel commutator and cable (Plastics One, Roanoke, VA, USA). The signal was then further amplified with a multichannel amplifier (Cyberamp 380, Axon Instruments, Union City, CA, USA). Auditory stimuli were controlled by the interface via an eight channel power amplifier (SA8, Tucker Davis Technologies, Alachua, FL) connected to a patch panel (PP16, Tucker Davis Technologies), which was connected to speakers located above each cage (TDT Magnetic Speakers, Tucker Davis Technologies). During recording sessions, animals were placed inside standard mouse cages (30 × 15 × 15 cm) and rigged so that the six channel cables could connect with the rest of the apparatus outside of the cage.
Male Sprague-Dawley rats (150–180 g at arrival) were anesthetized with 3% isoflurane and their scalp was shaved and prepared for surgery. An incision was made in the scalp and the skin was retracted to allow direct contact with the skull surface. The skull was cleaned with a dry Q-tip and five holes were drilled through the skull. Three holes were drilled at coordinates AP + 1 mm, ML + 1 mm (reference); AP−4 mm, ML ± 4 mm (leads 1 and 2) relative to bregma, while an additional hole was drilled in the frontal area (ground) and another hole was drilled at the midpoint between the anterior and posterior coordinate (anchor). […]
AEP data analysis: Data were collected and analyzed using Spike2 software (CED Software, Cambridge, UK). […] Then a horizontal cursor was placed at the highest and lowest (peak and trough) point of the P1/N1 wave, for both the wave occurring to the first tone (S1) and to the second tone (S2), and the value was recorded into an Excel spreadsheet. […]

CD-1 mice = test: LY404039-induced turning behavior; format: in vivo
Procedure: Under light restraint, a single unilateral intracortical infusion of the selective mGluR2/3 receptor agonist, LY404039, was performed in CD-1 mice (25–30 g at arrival). An injection point was assessed using the eyes and back of the skull as landmarks. Immediately following the application of LY404039, the observation period began. The number of contralateral turns elicited in a 5 min period was recorded. SAR218645 was administered orally 60 min before infusion of LY404039 and the potentiation of the turning behavior was noted. The selective mGluR2/3 receptor antagonist, LY341495, was administered ip 90 min prior to infusion of LY404039. Statistical analysis was performed using Kruskal Wallis test followed by a Wilcoxon two-tailed comparison. Ten animals per group were used.

rat mGluR2 = rat mGluR2 (Rattus norvegicus, UniProt P31421); test: Ca2+ mobilization assay, HEK293 cells expressing rat mGluR2/Gα16
Procedure: Recombinant rat and human mGluR2 receptors were stably expressed in HEK293 Flp-in-T-REx cell lines with Gα16. Receptor and G-protein expression were induced with either tetracycline or doxycycline 20–24 hr before the experiment. Growth medium was replaced with HBSS buffer containing Ca^2+ and Mg^2+, 20 mM HEPES. Calcium mobilization was monitored using Fluo-4 or Calcium-3 dye on a Functional Drug Screening System (FDSS) reader (Hamamatsu Photonics, Hamamatsu City, Japan). Responses were measured as peak fluorescence intensity minus basal fluorescence. EC50 values were calculated using 4-parameter curve fitting.

human mGluR8 = target: T1, human mGluR8 (Homo sapiens, UniProt O00222); test: Multispan Allosteric Profiling panel, Ca2+ (Gqi5); format: cell-based
T1 construct: host or cells: HEK293 co-expressing Gqi5
T1 sequence (O00222 34-908): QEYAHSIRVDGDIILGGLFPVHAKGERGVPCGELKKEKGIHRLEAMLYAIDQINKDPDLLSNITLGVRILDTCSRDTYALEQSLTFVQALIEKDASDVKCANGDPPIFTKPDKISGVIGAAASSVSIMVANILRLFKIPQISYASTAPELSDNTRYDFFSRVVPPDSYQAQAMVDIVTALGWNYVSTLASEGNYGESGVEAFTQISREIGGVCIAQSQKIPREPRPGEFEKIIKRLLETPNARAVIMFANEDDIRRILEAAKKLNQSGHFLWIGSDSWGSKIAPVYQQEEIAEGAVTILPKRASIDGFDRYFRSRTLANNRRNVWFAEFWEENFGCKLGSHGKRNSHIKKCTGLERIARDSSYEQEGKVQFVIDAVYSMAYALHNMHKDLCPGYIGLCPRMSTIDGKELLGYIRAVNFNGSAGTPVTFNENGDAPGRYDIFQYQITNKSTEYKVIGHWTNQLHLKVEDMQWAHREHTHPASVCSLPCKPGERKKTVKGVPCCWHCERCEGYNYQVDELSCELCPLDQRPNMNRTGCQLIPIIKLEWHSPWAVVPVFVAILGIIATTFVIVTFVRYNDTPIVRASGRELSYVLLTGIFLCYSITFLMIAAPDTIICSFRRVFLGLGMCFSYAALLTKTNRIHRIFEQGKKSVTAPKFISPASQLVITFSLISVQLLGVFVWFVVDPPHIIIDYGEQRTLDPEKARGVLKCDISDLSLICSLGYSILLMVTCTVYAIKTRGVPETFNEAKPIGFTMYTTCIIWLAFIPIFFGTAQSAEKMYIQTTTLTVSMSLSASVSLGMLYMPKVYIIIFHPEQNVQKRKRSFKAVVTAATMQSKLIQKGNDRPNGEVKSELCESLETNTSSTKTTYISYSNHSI

Chain of rat mGluR2 (P31421 19-872): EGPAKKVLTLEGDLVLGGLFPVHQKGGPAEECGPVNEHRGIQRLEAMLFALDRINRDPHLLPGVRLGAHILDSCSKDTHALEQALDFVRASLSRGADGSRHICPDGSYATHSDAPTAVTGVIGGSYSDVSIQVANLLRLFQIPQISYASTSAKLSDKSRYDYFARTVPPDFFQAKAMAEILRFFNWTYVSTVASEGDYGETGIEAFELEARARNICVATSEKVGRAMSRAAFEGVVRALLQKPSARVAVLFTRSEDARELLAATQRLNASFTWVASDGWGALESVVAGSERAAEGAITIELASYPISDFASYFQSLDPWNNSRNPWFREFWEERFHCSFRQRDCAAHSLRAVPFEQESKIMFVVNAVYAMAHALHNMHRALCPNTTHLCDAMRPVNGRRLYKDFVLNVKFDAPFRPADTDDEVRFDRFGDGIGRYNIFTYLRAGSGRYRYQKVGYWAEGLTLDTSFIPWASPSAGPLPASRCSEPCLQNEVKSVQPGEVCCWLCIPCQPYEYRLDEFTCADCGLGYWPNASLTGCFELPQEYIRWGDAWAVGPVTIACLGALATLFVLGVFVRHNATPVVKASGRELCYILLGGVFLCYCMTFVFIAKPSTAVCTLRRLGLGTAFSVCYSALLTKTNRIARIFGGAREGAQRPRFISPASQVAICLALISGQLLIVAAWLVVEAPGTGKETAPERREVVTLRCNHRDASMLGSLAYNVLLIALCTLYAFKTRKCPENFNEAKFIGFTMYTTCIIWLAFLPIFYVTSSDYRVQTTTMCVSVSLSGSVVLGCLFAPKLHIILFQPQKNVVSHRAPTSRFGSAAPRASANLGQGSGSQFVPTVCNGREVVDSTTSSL

`CC1(C)CCc2cc(OC[C@@H]3Cn4ccc(=O)nc4O3)ccc21` [SAR218645, (S)-2-(1,1-dimethyl-indan-5-yloxymethyl)-2,3-dihydro-oxazolo[3,2-a]pyrimidin-7-one] was tested, and the Minimal active dose (OF1 mice) was over 30 mg/kg, the “effect on amphetamine-disrupted auditory gating (S2/S1 ratio)” value (Sprague-Dawley rats; 0.3 and 3 mg/kg po, amphetamine 3 mg/kg) was “attenuated amphetamine-induced disrupted gating” and the Minimal active dose (Sprague-Dawley rats; dose-range 0.3–3, po, Sprague-Dawley rats) was 0.3 mg/kg. For the same compound, the “effect on LY404039-induced turning behavior” value (CD-1 mice; 3 and 10 mg/kg po, 60 min before LY404039 infusion, P < 0.01) was “potentiated significantly”, the Minimal active dose (CD-1 mice; dose-range 1–10, po, CD-1 mice) was 3 mg/kg and the “effect on response to EC10 glutamate” value (rat mGluR2; EC10 concentration (100 nM) of glutamate) was “enhanced sensitivity to glutamate”. For the same compound, the “intrinsic agonism (compound alone)” value (rat mGluR2; absence of glutamate) was “no effect per se”, the “effect on maximal response to glutamate” value (rat mGluR2; increasing concentrations of SAR218645) was “no significant increase” and the “enhancement of glutamate potency (leftward shift of glutamate concentration-response curve)” value (rat mGluR2; increasing concentrations of SAR218645, HEK293 rat mGluR2/Gα16) was “approximately 25 fold”. The “effect on glutamate-induced activation” value (human mGluR8; 10 μM SAR218645) was “no effect” and the “calcium response to compound alone” value (human mGluR8; SAR218645 alone) was “did not elicit a calcium response”.
